The values that follow come from ChEMBL document CHEMBL1201862, “PubChem BioAssay data set” (2004).

Test [1] concerns the target Disintegrin and metalloproteinase domain-containing protein 17 (Homo sapiens, UniProt P78536). The test can be described thus: inhibition of ADAM17 substrate cleavage – biochemical, quenched FRET substrate, counter-screen for ADAM10 exosite inhibitor project, dose response (AID 743253). In general terms: Counterscreens check selectivity or assay interference.
Test [2] is described as follows: intracellular Trypanosoma cruzi inhibitors in host cells – cell-based, plate reader, cherry-pick samples, set 3, dose response (AID 651818).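 Also: compounds incubated with infected cells for about four days.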 In kind it is functional.
A short description of test [3]: potency of ADAM10 substrate cleavage blockers – biochemical, QFRET, dose response (AID 743254).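 Also: ADAM10 enzyme with the DM2 quenched FRET peptide as substrate; EDANS fluorescence gain as the protease cuts the substrate; inhibitor potency against ADAM10 proteolytic activity.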
The target of the next test is Transthyretin (Homo sapiens, UniProt P02766). In words: Luminescence-based cell-based high throughput dose response assay to identify activators of Transthyretin (TTR) transcription. The test is classed as functional.
Test [4] concerns the target T1, Zinc finger protein mex-5 (Caenorhabditis elegans, UniProt Q9XUB2).
T1 sequence (Q9XUB2 whole entry): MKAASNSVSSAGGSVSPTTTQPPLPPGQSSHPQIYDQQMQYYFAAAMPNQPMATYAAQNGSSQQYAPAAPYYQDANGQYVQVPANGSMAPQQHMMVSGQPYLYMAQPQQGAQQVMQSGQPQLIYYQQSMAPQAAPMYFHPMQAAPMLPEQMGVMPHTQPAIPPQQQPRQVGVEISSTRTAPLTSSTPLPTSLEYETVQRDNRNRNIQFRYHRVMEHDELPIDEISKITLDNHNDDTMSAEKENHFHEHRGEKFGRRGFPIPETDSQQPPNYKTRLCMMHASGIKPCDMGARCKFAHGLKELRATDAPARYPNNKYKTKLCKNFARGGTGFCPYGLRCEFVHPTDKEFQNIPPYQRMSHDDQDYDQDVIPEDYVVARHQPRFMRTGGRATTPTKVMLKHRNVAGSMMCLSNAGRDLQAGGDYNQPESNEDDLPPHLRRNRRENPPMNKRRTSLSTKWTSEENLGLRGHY
The test can be described thus: potency of MEX-5 RNA-binding blockers – biochemical, C. elegans, fluorescence polarization, dose response (AID 1960). A general note: Fluorescence polarisation rises when a labelled molecule tumbles more slowly, as on binding a larger partner.

Test [5] concerns the target T2, RNA-binding protein pos-1 (Caenorhabditis elegans, UniProt G5EF15).
T2 sequence (G5EF15 whole entry): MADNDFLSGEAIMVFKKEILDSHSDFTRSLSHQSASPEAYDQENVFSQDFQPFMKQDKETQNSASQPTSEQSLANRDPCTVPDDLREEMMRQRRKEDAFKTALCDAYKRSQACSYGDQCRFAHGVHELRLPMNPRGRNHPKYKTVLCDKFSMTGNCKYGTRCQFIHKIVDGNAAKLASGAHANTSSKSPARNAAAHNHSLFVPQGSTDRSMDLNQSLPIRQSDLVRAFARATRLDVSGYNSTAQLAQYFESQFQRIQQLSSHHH
The test can be described thus: disruptors of C. elegans POS-1 RNA interaction – biochemical, fluorescence polarization, dose response (AID 1964).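 Also: purified POS-1 fused to maltose binding protein made in E. coli; potency of compounds blocking POS-1 binding to fluorescent RNA.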

Test [6] is described as follows: toxicity to human hepatoma HepG2 cells – cell-based, cherry-picked samples, cytotoxicity control, dose response (AID 1159577). In kind it is functional.
Test [7] can be described thus: P. falciparum Dd2 growth inhibitors, dose response, SYBR Green, cherry-picked samples (AID 1159567). The test is classed as functional, cell-based.
Test [8] in a line: cells.
The target in test [9] is T3, Oxysterols receptor LXR-beta (Homo sapiens, UniProt P55055).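 Also: Cell-based luminescence dose-response assay of agonist activity at LXR, run as a confirmatory counterscreen to a daf-12 agonist screen; HEK293 cells with Gal4-LXR fusion and GAL4-driven luciferase reporter; agonist potency from rising luciferase signal of a Gal4-LXR reporter.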
T3 sequence (P55055 whole entry): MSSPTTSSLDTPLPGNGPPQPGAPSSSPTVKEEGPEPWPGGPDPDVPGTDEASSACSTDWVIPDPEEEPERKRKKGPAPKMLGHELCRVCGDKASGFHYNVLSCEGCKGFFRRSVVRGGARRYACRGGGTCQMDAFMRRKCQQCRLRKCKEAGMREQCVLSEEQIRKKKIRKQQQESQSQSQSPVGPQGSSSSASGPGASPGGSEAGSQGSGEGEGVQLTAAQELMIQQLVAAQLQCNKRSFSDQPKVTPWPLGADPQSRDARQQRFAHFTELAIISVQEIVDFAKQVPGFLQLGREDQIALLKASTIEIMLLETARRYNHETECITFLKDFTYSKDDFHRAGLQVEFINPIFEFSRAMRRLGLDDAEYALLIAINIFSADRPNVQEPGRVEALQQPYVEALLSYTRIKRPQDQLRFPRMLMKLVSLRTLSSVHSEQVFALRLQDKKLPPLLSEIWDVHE
The test is classed as functional, cell-based.

The nature of test [10]: cells. The source holds these as a separate data set.
The target in another test is Major prion protein (Homo sapiens, UniProt P04156). In kind it is functional, cell-based.
Test [11] can be described thus: toxicity to human HepG2 hepatoma cells – cell-based, plate reader, dry powder samples, cytotoxicity control, dose response (AID 1159569).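 Also: inhibitor potency with signal falling toward the positive control level.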 The test is classed as functional.
A short description of test [12]: blockade of melanocortin 4 receptor signaling – cell-based, plate reader, cherry pick, counter-screen for LGR2 antagonist project, dose response (AID 743444).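 Also: transfected HEK 293 cells stimulated with alpha-MSH peptide; potency of inhibitors of the alpha-MSH evoked signal.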 The test is classed as functional.
The nature of test [13]: viability loss in HEK293 cells – cell-based, plate reader, cherry-picked samples, cytotoxicity control, dose response (AID 743446). The test is classed as functional.
Test [14] is described as follows: growth inhibition of PfATP4-mutant resistant parasites – NITD609-resistant line, SYBR Green, dry powder, dose response (AID 1159571).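 Also: parasites synchronized at ring stage by sorbitol before testing.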 The test is classed as functional, cell-based.
The nature of test [15]: toxicity toward HepG2 liver cells – cell-based, plate reader, cherry-pick, antagonist series, cytotoxicity control, dose response (AID 743416). In kind it is functional.
The nature of test [16]: growth inhibition of yeast DHODH-expressing 3D7 parasites – SYBR Green, dry powder samples, dose response (AID 1159570).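 Also: parasite growth measured after 72 hours of compound exposure.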 In kind it is functional, cell-based.
The nature of test [17]: Dd2 malaria parasite growth inhibition potency – SYBR Green, dry powder samples, dose response (AID 1159566).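 Also: potency for growth inhibition with lower SYBR green DNA signal.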 In kind it is functional, cell-based.
Test [18] can be described thus: A549 cell cytotoxicity, dose response, cytotoxicity control, plate reader, cherry-pick, antagonist series (AID 743412). The test is classed as functional, cell-based.
Test [19] is described as follows: blockers of bursicon-stimulated LGR2 cAMP reporter – cell-based, HEK293, CRE-luciferase reporter, cherry pick, set 2, dose response (AID 743343).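 Also: transfected cells were stimulated with diluted bursicon conditioned medium after compound addition.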 The test is classed as functional. (In general: A reporter such as luciferase makes a cellular process visible.)
The target in test [20] is T4, NAD-dependent protein deacylase sirtuin-5, mitochondrial (Homo sapiens, UniProt Q9NXA8). In words: blockers of sirtuin-5 peptide desuccinylation – biochemical, fluorescence imaging, cherry-pick, set 6, dose response (AID 720597).
Test [21] addresses T4, NAD-dependent protein deacylase sirtuin-5, mitochondrial. The test can be described thus: sirtuin-5 deacylation blockers, concentration series – biochemical, fluorescence imaging, cherry-pick, set 5, dose response (AID 720591).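 Also: desuccinylation of succinyl peptide AMC substrate read as fluorescence after trypsin release; potency of inhibitors that lower fluorescence and may act on trypsin instead.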
A short description of test [22]: viability loss in MITF-independent A375 cells – cell-based, CellTiter-Glo luminescence, dry powder, set 2, counter-screen for MITF inhibitor project, dose response (AID 624489).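 Also: actives are compounds lowering A375 viability meaning general cytotoxicity.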 In kind it is functional. To be noted: A-375.
Test [23] is described as follows: cytotoxicity in MITF-independent A375 cells – cell-based, CellTiter-Glo luminescence, dry powder, set 4, counter-screen for MITF inhibitor project, dose response (AID 624364).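 Also: A375 melanoma cells are MITF independent so this is a counter screen.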 The test is classed as functional. To be noted: A-375.

Activity calls are given as the source filed them. Where only a bound is given, the exact number is not on record here.

For the compound `C[C@@H]1CCCCO[C@H](CN(C)S(=O)(=O)c2ccc(F)cc2)[C@@H](C)CN([C@H](C)CO)C(=O)c2cc(NC(=O)Nc3ccc(C(F)(F)F)cc3)ccc2O1`, the IC50 in test [1] and in test [3] was > 69.5 µM (inactive) each time. Also, the AC50 in test [2] was 3.61 µM (active).
For `CCCCN1C(=O)NC(=O)/C(=C(O)\C=C\c2ccc3c(c2)OCO3)C1=O`, the EC50 at Transthyretin is > 167 µM (inactive); in [4], 9.12 µM (inconclusive); in [5], 11.5 µM (active).
Turning to `COc1ccc(S(=O)(=O)N2CCCCN3[C@@H](CO)[C@@H](c4ccc(C5=CCCCC5)cc4)[C@@H]3C2)cc1`, the AC50 was 10.2 µM (active) in test [6] and 0.972 µM (active) in test [7].
Turning to `O=C1C(=C2CCc3ccccc32)Cc2ccccc21`, the EC50 (in the test “cells [8]”; in [9]) was > 67.4 µM (inactive) in each case.
On to `CNc1ncc(C(=O)c2ccc(Cl)cc2)s1`, for which the IC50 in “cells [10]” is > 138 µM (inactive); on Major prion protein, 6.92 µM (active).
Take `N#Cc1ccc(-c2ccc([C@@H]3[C@@H]4CN(C(=O)C5CCC5)C[C@H]3N4)cc2)cc1`: the AC50 in [11] was > 100 µM (inactive); in test [12], 7.86 µM (active); in [13], > 52 µM (inactive); in test [7], 0.825 µM (active); in test [14], 1.35 µM (active); in [15] it was 22.7 µM (active). For the same compound, the half-maximal activity concentration (AC50) in test [16] was 1.19 µM (active); in test [17], 1.04 µM (active); in test [18], 7.74 µM (active); in test [19], 5.97 µM (active).
On to `COc1ccc(NC(=O)N(C)C[C@H]2Oc3ccc(NS(=O)(=O)c4ccc(F)cc4)cc3C(=O)N([C@@H](C)CO)C[C@H]2C)cc1`, for which the AC50 in test [20] was > 30 µM (inactive).
Consider `COC(=O)c1sc(N=C(S)NNC(=O)c2c(Br)c(C)nn2C)c(C(=O)OC)c1C`, for which the IC50 in “cells [10]” is > 138 µM (inactive); on Major prion protein it was 1.16 µM (active).
On to `O=S1(=O)N[C@@H](Cc2ccccc2)COc2cccc(N3CCCC3)c21`, for which the AC50 in [21] was > 30 µM (inactive).
As to `O=C1C(NS(=O)(=O)c2ccc(Br)s2)=C(N2CCSCC2)C(=O)c2ccccc21`, the AC50 in test [22] and in test [23] was > 70 µM (inactive) each time.

A word on the IC50: it is the concentration that gives 50% inhibition. The term AC50 denotes the concentration at which the activity in the assay is half-maximal. By EC50 is commonly meant the concentration giving half of the maximal effect.
